Results from patent US20070129411A1, “Treatment of proliferative diseases with epothilone derivatives and radiation” (priority 2003, published 2007).
Entries after “also recorded” stand apart in the source; their conditions may differ.

Key:
[1] = system: human colon adenocarcinoma cell line SW480; assay: alamarBlue tumor cell proliferation assay, SW480; assay type: cell-based
Experimental: (§1) Tumor cell proliferation was assessed by the calorimetric MTT-like alamarBlue assay that is based on detection of metabolite activity. To determine clonogenic survival the number of singular cells plated was adjusted to obtain about 100 colonies per dish with a given treatment. After 24 h exposure to the different drugs cells were irradiated and then allowed to grow for 8 to 10 days before fixation In methanol/acetic acid (75%/25%) and staining with crystal violet. Only colonies with more than 50 cells/colony were counted. The plating efficiency (PE) of untreated cells was determined and calculated as PE (%)=(scored colonies/number of plated cells)×100. The surviving fraction (SF) with a given treatment was determined by SF=(scored colonies)/(number of plated cells×PE/100). […] Irradiation of cell cultures was carried out at RT in tissue culture dishes (100×100 mm) or in 96-well plates using a Pantak Therapax […] X-ray unit at 0.7 Gy/min. Dosimetry was controlled with a Vigilant-dosimeter.
(§2) Initial proliferation assays were performed to determine the dose range of epothilone B to be applied for combined treatment with ionizing radiation. […] For this combined treatment modality cells were pretreated for 24 h with epothilone B prior to irradiation.

[2] = system: E1A/ras transformed p53-/- MEF; assay type: cell-based, murine; conditions: for proliferative activity, drug alone / proliferative activity, drug in combination with ionizing radiation: murine fibrosarcoma cell line, low nanomolar range, comparable extent for both drugs
Experimental: as §1, §2

SW480 = assay: clonogenic survival assay, SW480; assay type: cell-based, human
Experimental: (§3) Tumor cell proliferation was assessed by the calorimetric MTT-like alamarBlue assay that is based on detection of metabolite activity. To determine clonogenic survival the number of singular cells plated was adjusted to obtain about 100 colonies per dish with a given treatment. After 24 h exposure to the different drugs cells were irradiated and then allowed to grow for 8 to 10 days before fixation In methanol/acetic acid (75%/25%) and staining with crystal violet. Only colonies with more than 50 cells/colony were counted. The plating efficiency (PE) of untreated cells was determined and calculated as PE (%)=(scored colonies/number of plated cells)×100. The surviving fraction (SF) with a given treatment was determined by SF=(scored colonies)/(number of plated cells×PE/100). Clonogenic assays were performed at least twice and absence of error bars is due to minimal standard deviations. Irradiation of cell cultures was carried out at RT in tissue culture dishes (100×100 mm) or in 96-well plates using a Pantak Therapax […] X-ray unit at 0.7 Gy/min. Dosimetry was controlled with a Vigilant-dosimeter.
(§4) The clonogenic assay is based on the outgrowth of compact clones from singular cells that are seeded at low density in a petri dish. Clonal outgrowth under the different treatment conditions can be quantified and compared.

E1A/ras-transformed MEFs = assay: clonogenic survival assay, E1A/ras-transformed MEF; assay type: cell-based, murine; conditions: 24 h drug exposure then irradiation
Experimental: as §3, §4

CC(=O)O[C@H]1C(=O)[C@@]2(C)[C@H]([C@H](OC(=O)c3ccccc3)[C@]3(O)C[C@H](OC(=O)[C@H](O)[C@@H](NC(=O)c4ccccc4)c4ccccc4)C(C)=C1C3(C)C)[C@]1(OC(C)=O)CO[C@@H]1C[C@@H]2O [Paclitaxel, reference compound]
proliferation, response to drug ([1]; SW480, doses up to 500 nM): refractory
proliferative activity, drug alone [2]: reduced the proliferative activity
proliferative activity, drug in combination with ionizing radiation [2]: reduced the proliferative activity
clonogenic survival, combined treatment with ionizing radiation (SW480; Paclitaxel-resistant SW480, only at very high concentrations of Paclitaxel): at least additive effect
clonogenic survival, combined treatment with ionizing radiation (E1A/ras-transformed MEFs): at least additive effect

C/C(=C\c1csc(C)n1)[C@@H]1C[C@@H]2O[C@]2(C)CCC[C@H](C)[C@H](O)[C@@H](C)C(=O)C(C)(C)[C@@H](O)CC(=O)O1 [epothilone B]
antiproliferative effect of combined treatment with ionizing radiation ([1]; SW480, ionizing radiation 5Gy, 24 h drug pretreatment prior to irradiation): at least additive antiproliferative effect; also recorded: retains full activity
antiproliferative dose response, drug alone ([1]; SW480, over 72 hours, without irradiation): subnanomolar and low nanomolar range; also recorded: enhanced sensitivity; also recorded: retains full activity
antiproliferative effect of combined treatment with ionizing radiation ([2]; E1A/ras transformed p53-/- MEF, ionizing radiation 5Gy, 24 h drug pretreatment prior to irradiation): at least additive antiproliferative effect
antiproliferative dose response, drug alone ([2]; E1A/ras transformed p53-/- MEF, over 72 hours, without irradiation): subnanomolar and low nanomolar range
proliferative activity, drug alone [2]: reduced the proliferative activity
proliferative activity, drug in combination with ionizing radiation [2]: reduced the proliferative activity
clonogenic survival, combined treatment with ionizing radiation (SW480; SW480, 24 h drug exposure then irradiation): at least additive effect
clonogenic survival, sensitivity of SW480 relative to MEFs (SW480; SW480 compared with E1A/ras-transformed MEFs): more sensitive
clonogenic survival, combined treatment with ionizing radiation (E1A/ras-transformed MEFs): at least additive effect
